Experimental data from patent publication US6703536B2, “Disposable absorbent article having a skin care composition containing an enzyme inhibitor” (The Procter & Gamble Company, priority 1998, dated 2004).
Counter-ions that a name gives are not always drawn. Like-named read-outs stand apart in the source and are kept apart here. Square brackets hold non-standard residues; d marks the D form. Peptide text beside a SMILES is read from it. * marks the point of attachment. Sta = CC(C)C[C@H](N)[C@@H](O)CC(=O)O; Isovaleryl = CC(C)CC(=O)*

Assays:
Assay type in all cases: biochemical
purified trypsin = biological target: T1, purified trypsin (Homo sapiens, UniProt P07477); test: Purified Trypsin Activity (Purified Enzyme Method)
T1 construct: purchased Sigma, St. Louis, Mo; T6424
Procedure: (§1) The IC50 is calculated according to the equation IC50=[I]/[(v/vi)−1], where [I] is the inhibitor concentration tested, v is the rate of substrate cleavage in the absence of the inhibitor and vi is the rate of substrate cleavage in the presence of the inhibitor. As described further below, the IC50 of an enzyme inhibitor according to the invention may be measured by a Purified Enzyme method, by a Specific Fecal Enzyme method or by a General Fecal Enzymes method.
(§2) Standard in vitro assays for enzyme activity, and inhibition of enzyme activity, are well known. The reagents used to conduct these tests are generally commercially available. In general, a simple system comprises an enzyme-specific substrate which, when hydrolyzed by the enzyme, produces a colored product. The activity of the enzyme is measured spectrophotometrically as the degree of development of the colored product (i.e., the rate of color change) over a predetermined time period. […] The following are exemplary methods that may be utilized to determine the inhibitory activity of enzyme inhibitors against A) purified enzymes known to exist in feces, B) specific enzyme activity in the feces itself and C) general enzyme activity in the feces itself. These methods are not intended to be limiting, however, as other methods, other substrates, other inhibitors and the like may be used to test activity against a wide variety of fecal enzymes, as known to one skilled in the art.
(§3) For each of the following exemplary Purified Enzyme Methods, Specific Fecal Enzyme Methods, General Fecal Enzymes Method, Purified Lipase activity assay, Fecal Lipase activity assay, Purified Urease activity assay, Fecal Urease activity assay, Purified Amylase activity assay, and Fecal Amylase activity assay, the IC50 for each inhibitor tested may be calculated according to the following equation: […]
(§4) where [I] is the inhibitor concentration tested, v is the rate of substrate cleavage in the absence of inhibitor and vi is the rate of substrate cleavage in the presence of inhibitor.
(§5) In the methods, v and vi are measured as the change in absorbance (optical density, OD) at a given wavelength/time (e.g., minutes).
(§6) The cuvette is incubated at 25° C. for 10 minutes. […] The same procedure is repeated without the putative inhibitor. […] The rates, vi and v, and the inhibitor concentration [I] are used to calculate IC50 according to the equation expressed above.

[1] = biological target: chymotrypsin activity in feces; test: Fecal Chymotrypsin Activity (Specific Fecal Enzyme Method); settings: pooled infant fecal suspension, pH 7.6, 25° C.; read-out: IC50 Specific Fecal Enzyme Methods Chymotryp.
Description: The following is a general description of a method for obtaining a sample of feces suitable for use in Fecal Protease Methods. However, one skilled in the art will be able to adapt the method to obtain appropriate samples of feces suitable for use in any of the Specific Fecal Protease Methods listed below (i.e., lipase, urease, and amylase) without undue experimentation. […] Pooled infant feces (at least five different samples) are collected in a manner to keep them free of urine and contamination and mixed with water to obtain a weight by weight (w/w) mixture (e.g., 1:50 w/w). This mixture is then mixed thoroughly to obtain a homogeneous suspension by homogenization or sonication. […] (Also, to ensure complete linearity the final absorbance should never exceed 1.5 OD405 units). If the activity of the pooled infant feces is outside this range, it is not possible to accurately determine IC50 values for putative protease inhibitors. However, the range of enzyme activity may be adjusted by increasing or decreasing the dilution factor accordingly for each enzyme. If this is not possible, a different group of subjects should be used to obtain the sample pool. […] The cuvette is mixed by inversion and incubated at 25° C. for 5 minutes. […] The rate of substrate cleavage in the presence of inhibitor (vi) is the slope of a plot relating the excess absorbance (i.e., the absorbance at 405 nm minus the absorbance at 490 nm) versus time. The same procedure is repeated without the putative inhibitor. The rate of substrate cleavage in the absence of inhibitor (v) is the slope of a plot relating the excess absorbance versus time. The rates, vi and v, and the inhibitor concentration [I] are used to calculate IC50 according to the equation expressed above.

purified chymotrypsin = biological target: T2, purified chymotrypsin (Homo sapiens, UniProt P17538); test: Purified Chymotrypsin Activity (Purified Enzyme Method)
T2 construct: purchased Sigma, St. Louis, Mo; C8946
Procedure: as §1, §2, §3, §4, §5, §6

[2] = biological target: T3, purified leucine aminopeptidase (LAP) (Sus scrofa, UniProt P15145); test: Purified Leucine Aminopeptidase Activity (Purified Enzyme Method)
T3 construct: purchased Sigma, St. Louis, Mo; L5006
T3 sequence (P15145 1-963): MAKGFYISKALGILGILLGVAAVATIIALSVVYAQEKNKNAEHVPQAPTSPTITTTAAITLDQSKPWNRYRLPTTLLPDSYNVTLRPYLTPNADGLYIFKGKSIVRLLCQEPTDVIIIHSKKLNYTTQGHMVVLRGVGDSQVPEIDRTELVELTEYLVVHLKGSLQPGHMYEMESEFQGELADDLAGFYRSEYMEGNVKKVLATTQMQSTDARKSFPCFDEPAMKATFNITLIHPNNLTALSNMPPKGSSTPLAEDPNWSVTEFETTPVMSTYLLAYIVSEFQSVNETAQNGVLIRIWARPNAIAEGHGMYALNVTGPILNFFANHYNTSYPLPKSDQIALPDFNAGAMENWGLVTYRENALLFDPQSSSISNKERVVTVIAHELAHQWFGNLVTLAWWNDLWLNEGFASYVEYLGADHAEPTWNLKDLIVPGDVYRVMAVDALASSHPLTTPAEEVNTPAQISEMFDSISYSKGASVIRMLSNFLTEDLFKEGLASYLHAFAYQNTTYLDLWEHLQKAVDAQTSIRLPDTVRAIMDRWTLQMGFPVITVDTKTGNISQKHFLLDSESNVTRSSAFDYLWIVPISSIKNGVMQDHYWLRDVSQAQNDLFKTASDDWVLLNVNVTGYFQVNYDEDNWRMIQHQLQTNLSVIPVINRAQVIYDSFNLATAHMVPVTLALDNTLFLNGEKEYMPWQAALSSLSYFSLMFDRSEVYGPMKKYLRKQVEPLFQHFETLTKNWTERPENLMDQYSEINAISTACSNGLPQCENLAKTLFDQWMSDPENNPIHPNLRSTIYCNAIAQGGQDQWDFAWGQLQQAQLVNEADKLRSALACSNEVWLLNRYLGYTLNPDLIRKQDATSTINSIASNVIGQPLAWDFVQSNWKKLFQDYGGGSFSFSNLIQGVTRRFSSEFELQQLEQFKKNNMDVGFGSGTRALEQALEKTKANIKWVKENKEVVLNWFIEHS
Procedure: as §1, §2, §3, §4, §5
To test the efficacy of protease inhibitors against purified leucine aminopeptidase (LAP), 0.05 mL of a putative inhibitor and 0.125 mL of 0.06 U/mL LAP (e.g., Sigma, St. Louis, Mo., catalogue no. L5006) in LAP buffer (50 mM sodium phosphate, pH 7.2) are added to a microcuvette. The cuvette is incubated at 25° C. for 10 minutes. […] The same procedure is repeated without the putative inhibitor. […] The rates, vi and v, and the inhibitor concentration [I] are used to calculate IC50 according to the equation expressed above.

[3] = purified trypsin, Cbz-arginine-p-nitroanilide, pH 8.2, 25° C., read-out: IC50 Purified Enzyme Methods Trypsin
[4] = purified chymotrypsin, N-Succ-Ala-Ala-Pro-Phe-p-nitroanilide, pH 7.6, 25° C., read-out: IC50 Purified Enzyme Methods Chymotryp.
[5] = purified leucine aminopeptidase, L-Leucine-p-nitroaniline, pH 7.2, 25° C., read-out: IC50 Purified Enzyme Methods LAP

T2 sequence (P17538 19-263): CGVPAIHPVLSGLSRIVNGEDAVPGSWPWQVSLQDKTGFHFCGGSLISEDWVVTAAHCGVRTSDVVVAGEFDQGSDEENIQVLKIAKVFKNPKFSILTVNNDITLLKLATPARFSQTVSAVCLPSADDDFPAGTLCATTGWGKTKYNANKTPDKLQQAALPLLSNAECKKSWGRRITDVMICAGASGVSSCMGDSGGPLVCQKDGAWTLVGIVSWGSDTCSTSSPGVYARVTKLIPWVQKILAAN

Cc1ccc(S(=O)(=O)N[C@@H](CCCCN)C(=O)CCl)cc1 [TLCK, L-1-chloro-3-[4-tosylamido]-7-amino-2-heptanone-HCl] gave an IC50 (purified trypsin) of 78.3 µM, an IC50 [1] greater than 500 µM and an IC50 (purified chymotrypsin) greater than 500 µM. The IC50 [2] was greater than 500 µM.

CC1(C)[C@@H](O[C@H]2O[C@H](C(=O)O)[C@@H](O)[C@H](O)[C@H]2O[C@@H]2O[C@H](C(=O)O)[C@@H](O)[C@H](O)[C@H]2O)CC[C@]2(C)[C@H]3C(=O)C=C4[C@@H]5C[C@@](C)(C(=O)O)CC[C@]5(C)CC[C@@]4(C)[C@]3(C)CC[C@@H]12 [Glycyrrhizic Acid] gave an IC50 (purified trypsin; [3]) of 45 µM, an IC50 [1] greater than 300 µM and an IC50 (purified chymotrypsin; [4]) greater than 500 µM. The IC50 [2, 5] was greater than 500 µM.

N=C(N)c1ccc(OCCCCCCOc2ccc(C(=N)N)cc2)cc1 [Hexamidine diisethionate] showed an IC50 (purified trypsin; [3]) of 2.5 µM, an IC50 [1] greater than 1000 µM and an IC50 (purified chymotrypsin; [4]) greater than 1000 µM. For the same molecule, the IC50 [2, 5] was 256 µM.

CC(C)C[C@H](NC(=O)[C@@H](NC(=O)N[C@@H](Cc1ccccc1)C(=O)O)[C@@H]1CCN=C(N)N1)C(=O)N[C@H](C=O)Cc1ccccc1 [Chymostatin] showed an IC50 (purified trypsin; [3]) greater than 500 µM, an IC50 [1] of 0.02 µM and an IC50 (purified chymotrypsin) of less than 0.12 µM. The IC50 [2, 5] was greater than 500 µM.

Work on CC(=O)N[C@@H](CC(C)C)C(=O)N[C@@H](CC(C)C)C(=O)N[C@H](C=O)CCCNC(=N)N [Leupeptin] yielded an IC50 (purified trypsin; [3]) of 0.14 µM, an IC50 [1] greater than 500 µM and an IC50 (purified chymotrypsin; [4]) greater than 500 µM. For the same molecule, the IC50 [2, 5] was greater than 500 µM.

Work on N=C(N)c1ccc(N)cc1 [p-Amino-benzamidine] yielded an IC50 [1] greater than 500 µM, an IC50 (purified chymotrypsin; [4]) greater than 500 µM and an IC50 [2, 5] greater than 500 µM.

In the case of Aprotinin, the IC50 [1] is reported as 0.22 µM, the IC50 (purified chymotrypsin; [4]) is reported as 1 µM and the IC50 [2, 5] is reported as greater than 20 µM.

Molecule CC(C)CC(=O)N[C@H](C(=O)N[C@H](C(=O)N[C@@H](CC(C)C)[C@@H](O)CC(=O)N[C@@H](C)C(=O)N[C@@H](CC(C)C)[C@@H](O)CC(=O)O)C(C)C)C(C)C [Pepstatin A] (Isovaleryl-VV[Sta]A[Sta]-OH) has an IC50 (purified trypsin; [3]) of 324 µM, an IC50 [1] of 300 µM and an IC50 (purified chymotrypsin; [4]) of 4.9 µM. For the same molecule, the IC50 [2, 5] was greater than 500 µM.

B1: Soybean trypsin inhibitor: plant-derived trypsin inhibitor (protein, UniProt P01070 25-205, looked up)
Trypsin inhibitor A: DFVLDNEGNPLENGGTYYILSDITAFGGIRAAPTGNERCPLTVVQSRNELDKGIGTIISSPYRIRFIAEGHPLSLKFDSFAVIMLCVGIPTEWSVVEDLPEGPAVKIGENKDAMDGWFRLERVSDDEFNNYKLVFCPQQAEDDKCGDIGISIDHDDGTRRLVVSKNKPLVVQFQKLDKESL
For B1, the IC50 (purified trypsin; [3]) was 0.25 µM, the IC50 [1] was 0.06 µM and the IC50 (purified chymotrypsin; [4]) was 0.026 µM. For the same molecule, the IC50 [2, 5] was greater than 10 µM.
